Measured values reported in patent US20070225278A1, “Methods for treating cognitive and other disorders” (priority 2006, published 2007).

Columns and labels:
[1] = test system: male Sprague-Dawley rats; type: in vivo, rat; conditions: for Sexual dysfunction (MED mg/kg): male, Sprague-Dawley, rat, in vivo, 30 min; for reduction of the number of penile erections relative to vehicle treated animals: sexually experienced male rats, female stimuli present, i.p. once daily
Source text: In summary, male rats were allowed access to sexually receptive females during a single overnight mating session and then administered antidepressants with varying degrees of clinically reported sexual deficits. […] Animals
Intact male Sprague-Dawley rats (Charles River Laboratories) arrived at 7 weeks of age and were allowed to habituate for one week prior to sexual experience or behavioral testing. Rats were group housed in same-sex colony rooms with food and water provided ad libitum. All animals were maintained under a 12:12 light-dark cycle (lights on at 6:00 am) with behavioral experiments performed during the light hours beginning at noon.
Ovariectomized female Long-Evans rats (Charles River Laboratories) were individually housed and brought into behavioral estrus weekly by subcutaneous injection of 25 ug 17-B estradiol benzoate in 0.1 ml corn oil 48 hours prior to testing, followed by subcutaneous administration of 2.5 mg progesterone in 0.1 ml corn oil 4 to 6 hours before testing.
For subjects assigned into the sexually experienced group, the following procedures were performed. Individual male rats were placed into the home cage of a a sexually receptive female for overnight mating sessions. The cage was a Plexiglas cage measuring 10×12 inches, with food and water ad libitum. Mating pairs were randomly assigned. […] Following overnight mating sessions, males and females were separated from each other and placed back into same-sex colony rooms where they were group-housed until the time of behavioral testing.
To determine the effects of female stimuli on non-contact penile erections, sexually receptive females were brought into the testing room 30 minutes prior to the start of behavioral testing in order to provide female visual, olfactory, and auditory stimuli for males. The testing arena for observing non-contact penile erections in male rats consisted of an empty rat size Plexiglas cage (11×10 inches) containing no bedding, with an aerated plastic lid and a total ceiling height of 12 inches. […] A penile erection consisted of observation of the male rat in a hunched position grasping the penis with the forepaws and followed by a series of pelvic thrusts. The number of penile erections were quantified over a 30 minute observation session.
Following sexual experience (as described above), male subjects (n=8 per group) were administered either 10 mg/kg/day fluoxetine or saline vehicle for 14 days. On the 14th day, fluoxetine treatment was co-administered with either saline or apomorphine (0.1-0.3 mg/kg, sc) or yohimbine (0.1-0.3 mg/kg, sc) or sildenafil (0.1-0.3 mg/kg, sc) in separate experiments. Non-contact penile erections were evaluated in 30 minute test sessions in the presence of sexually receptive female rats.
Fluoxetine HCl (Tocris), desipramine (Sigma, St. Louis, Mo.) and bupropion HCl (Toronto Research Chemicals, Canada) were dissolved in 0.9% sterile saline vehicle and injected intraperitoneally (i.p.) once daily. On the day of behavioral testing, antidepressants were administered intraperitoneally (i.p.) as one hour pretreatments. For reversal experiments, apomorphine (Sigma, St. Louis, Mo.), yohimbine (Sigma, St. Louis, Mo.) or sildenafil (Toronto Research Chemicals, Canada) were used. Apomorphine was dissolved in 0.9% sterile saline vehicle and injected subcutaneously (s.c.). Yohimbine was dissolved in dH2O facilitated with 1N HCl, followed by addition of 1N NaOH for titration (pH=7) and administered intraperitoneally (i.p.). Sildenafil was dissolved in 0.9% sterile saline vehicle and administered intraperitoneally (i.p.). With the exception of fluoxetine which was administered in a dose volume of 2 ml/kg, all other test compounds were administered in a dose volume of 1 ml/kg. On the day of behavioral testing, both fluoxetine and the reversal agent (apomorphine, yohimbine, or sildenafil) were co-administered as 0 minute pretreatments. […]

[2] = Antidepressant-like effects (MED), Table 2; type: in vivo; conditions: minimal effective dose
Source text: Table 2, below, summarizes the dose at which antidepressant-like effects are observed, the dose at which sexual dysfunction occurs, and the therapeutic window.

[3] = test system: male Sprague Dawley CD rats; experiment: Reversal of MK-801 induced deficits in PPI; conditions: data generated within the applicant's lab, doses not given

With `CC(NC(C)(C)C)C(=O)c1cccc(Cl)c1` (stereo not shown) [Bupropion, bupropion] the “Sexual dysfunction (MED mg/kg)” value [1] was over 20 mg/kg, the “reduction of the number of penile erections relative to vehicle treated animals” value [1] was 9% and the “Antidepressant-like effects (MED mg/kg)” value [2] was 20 mg/kg.
For `CNCCCN1c2ccccc2CCc2ccccc21` [Desipramine, desipramine], the “Sexual dysfunction (MED mg/kg)” value [1] was 10 mg/kg, the “reduction of the number of penile erections relative to vehicle treated animals” value [1] was 43% and the “Antidepressant-like effects (MED mg/kg)” value [2] was 10 mg/kg.
For `CNCCC(Oc1ccc(C(F)(F)F)cc1)c1ccccc1` (stereo not shown) [Fluoxetine, fluoxetine], the “Sexual dysfunction (MED mg/kg)” value [1] was 10 mg/kg, the “reduction of the number of penile erections relative to vehicle treated animals” value [1] was 72% and the “Antidepressant-like effects (MED mg/kg)” value [2] was 10 mg/kg.
For `Cc1nc2n(c(=O)c1CCN1CCC(c3noc4cc(F)ccc34)CC1)CCCC2` [risperidone, reference compound], the “attenuation of MK-801 induced deficit in PPI (reference antipsychotics)” value [3] was “will attenuate”.
